The record followed here is patent publication US20150024008A1, “Methods and Compositions Involving Induced Senescent Cells for Cancer Treatment” (THE UNIVERSITY OF CHICAGO, priority 2011, published 2015).

The test system of assay [1] is B16 tumors. Kind of assay: Flow cytometry of tumor infiltrating lymphocytes from B16 tumors. The assay is classed as in vivo, mouse. Particulars: veliparib+IR. As for the experimental part: Mouse melanoma cell line B16SIY (5×10^5 cells) were implanted subcutaneously in the flank of 6 to 8-wk-old C57/B6 mice. Tumors were allowed to grow until they reached a volume of about 100 to 150 mm^3 (approximately 2 wk) before treatment with PARP inhibitor veliparib (vrib, (R)-2-(2-methylpyrrolidin-2-yl)-1H-benzo[d]imidazole-4-carboxamide, ABT-888) and/or IR (Dunn 2006). Mice received 0.5 mg of veliparib in water twice daily by oral gavage as indicated. CD8^+, CD4^+, NK cells were depleted by anti-CD8 or anti-CD4 or anti-NK1.1, respectively, 1 d before IR. Depletion was confirmed by checking peripheral blood samples by flow cytometry. Macrophages were depleted with liposomal clodronate starting 1 d before IR. Depletion was confirmed by checking splenocyte and tumor samples by flow cytometry (Zhang 2008). Samples were collected 2 to 7 days later, and analyzed by flow cytometry using a BD LSRII flow cytometer. Blood samples were gated in forward scatter and side scatter on smaller cells for CD8, CD4 analysis, larger cells for NK and macrophage, and the percentage of different cell types were determined (Lugade 2008, Zhang 2010).
(In general: In flow cytometry, cells or beads pass a laser one at a time.)

Assay [2] deals with bone marrow DCs. Kind of assay: BM-DC coculture with veliparib/IR treated B16 cells. The class given is cell-based, mouse. The text has this:
B16SIY cells were maintained in a full medium supplemented with 10% FCS. The cells were pretreated with 10 μm veliparib then exposed to 6 or 12 Gy x-ray or IR alone (Gammacell 1000; MDS Nordion, Kanata, Ontario, Canada), then cocultured with immature BM-DC in a transwell system. 3 days later BM-DC were collected and analyzed by FACS for cell surface maturation marker and intracellular cytokines. […]

Assay [3] concerns 22Rv1 (human) prostate carcinoma cells. Kind of assay: Flow cytometric detection of SA-βGal with DDAO-G. The assay is classed as cell-based. The protocol:
Prostate carcinoma (PCa) cell lines included 22Rv1 (human) and TRAMP-C2 (murine, ATCC). PCa cell lines were propagated in complete culture medium using sterile culture flasks in a humidified, 5% CO2 incubator at 37° C. For 22Rv1 human PCa cells, complete media consisted of RPMI-1640 1× (modified without L-glutamine, Invitrogen) supplemented with fetal bovine serum (FBS, 10%, Gemini Biosciences), stabilized L-glutamine (2 mM, Gemini Biosciences), and penicillin-streptomycin solution (100 U/ml penicillin, 100 μg/ml streptomycin, Invitrogen). For TRAMP-C2 murine PCa cells, complete medium consisted of DMEM (modified with 4.5 g/l glucose and without L-glutamine, Invitrogen) supplemented with FBS (5%), Nu-Serum IV (5%, BD Biosciences), stabilized L-glutamine (4 mM), dehydroisoandrosterone (10 nM, Sigma-Aldrich), bovine insulin (5 μg/ml, Sigma-Aldrich), and penicillin-streptomycin solution (100 U/ml penicillin, 100 μg/ml streptomycin).
Cells were plated at low density (˜25×10^3 cells/cm^2) and incubated overnight to allow adherence to culture surfaces. The following day, PARP inhibitor veliparib (ABT-888, 10 μM in DMSO, ChemieTek) was added (or not) to freshly changed media to enhance uptake of the compound. Cells were incubated with veliparib for 60 minutes at 37° C. in 5% CO2 prior to gamma irradiation (IR, 6 Gy). Treated and untreated cells were then incubated undisturbed for 5 days to allow senescence to proceed.
Cells were pelleted by centrifugation for 5 minutes at 1000×g, supernatant removed, and pellet resuspended in 1% bovine serum albumin (BSA, United States Biological) in DPBS. Cell suspensions were counted (cells/mL) using a handheld counting device (Scepter, Millipore). […]
Analysis of SA-βGal signal was conducted by flow cytometry, using an LSRII cytometer (Becton Dickinson) equipped with a 633 nm red diode laser and a 670/30 (APC) bandpass filter suitable for DDAO red fluorescent signal excitation and emission detection. […] Single, whole cells were then visualized on a red-fluorescence vs SSC-A plot in order to define senescent SA-βGal^+ SSC^high cells. […]

The subject of assay [4] is breast, prostate, melanoma and head and neck squamous cell cancer cell lines. Kind of assay: Radiation induced senescence in different human cancer cell lines. The assay is classed as cell-based. Particulars: combined with radiation.
Assay [5] concerns bone marrow dendritic cells (CD11c). Kind of assay: Coculture of DCs with senescent TRAMP-C2 cells, immunostimulation assay. The following applies: CD45 positive cells.
Description: Briefly 2×10^6 of collected BM cells were resuspended in 10 ml of complete medium (CM) (RPMI, 10% FBS, pen/strep, HEPES) +20 ng/ml mouse granulocyte-macrophage colony-stimulating factor (GM-CSF). BM were transferred to uncoated plastic Petri dish. On a third day 10 ml of fresh CM+20 ng/ml GM-CSF were added. Immature dendritic cells (DC) were harvested on day 5, were suspended at 5×10^6 cells/ml in ice-cold freezing medium (CM+10 ng/ml GM-CSF+10% DMSO) and frozen for future experiments.
Assayed cells (TRAMP-C2) were plated 2.5×10^5 p100 plates and next day irradiated (6Gy) and 25 μM veliparib to obtained senescent phenotype. For TRAMP-C2 the coculture was started 6 days after cell irradiation and veliparib treatment. DCs were thawed and plated in CM+10 ng/ml GM-CSF 24 hours before they were cocultured with senescent TRAMP-C2 cells. In a day when co-culture started DCs were detached with trypsin and washed twice with phosphate buffered saline (PBS) to remove GM-CSF. Senescent TRAMP-C2 cells culture was washed with PBS and medium also changed to remove veliparib. Washed DCs and senescent cells were cocultured in fresh medium for 2-3 days.
After coculture medium was collected to harvest non-adherent cells fraction. […]
As CD45 is marker of immune cells, only CD45 positive cells were analyzed and TRAMP-C2 cells could be excluded from analysis as CD45 negative.
Where [6] appears, read: veliparib+IR cells, FSC vs. SSC.

Take `C[C@]1(c2nc3c(C(N)=O)cccc3[nH]2)CCCN1` [veliparib, (R)-2-(2-methylpyrrolidin-2-yl)-1H-benzo[d]imidazole-4-carboxamide]: in assay [1], the “NK cells in tumors” value is “more abundant” and the “proportion of IFNγ-producing CD8+ cells among tumor infiltrating lymphocytes” value was 29%. Besides, the “CD8+ cell proliferation stimulated by cocultured DCs” value in assay [2] (DCs from coculture with veliparib+IR treated B16 cells) was “better stimulated CD8+ cell proliferation”. In addition, in assay [2] (coculture with B16 cells treated with veliparib+6 Gy vs untreated or irradiated cells), the “CD11c+ cell proliferation” value is given as “increased CD11c+ cell proliferation”. For the same compound, the “CD11c+ cell maturation (MHC-II+, CD86+)” value in assay [2] (coculture with veliparib+IR-treated cells vs radiation only) is listed as “enhanced CD11c+ cell maturation”. For the same compound, in assay [3] (setting [6]), the “B-Gal high cells within the region shown by the black rectangle” value was determined as 41% and the “B-Gal- or B-Gal low cells within the region shown by the black rectangle” value was 59%. Besides, the “cells in senescent gate (B-Gal vs. SSC)” value in assay [3] (veliparib+IR treated viable cells) is 20%. For the same compound, in assay [4], the radiation induced senescence result is “enhances radiation induced senescence”. Besides, in assay [5] (TRAMP-C2 treated with 0 Gy+25 μM veliparib), the “population of CD11c positive cells” value is listed as 5.2%. Further, in assay [5] (TRAMP-C2 treated with IR (6Gy)+25 μM veliparib), the “population of CD11c positive cells” value amounted to 36.7%.
